{"source": "patent US20120214818A1", "about": "“METHODS OF TREATING DIASTOLIC DYSFUNCTION AND RELATED CONDITIONS” (THE BOARD OF TRUSTEES OF THE UNIVERSITY OF ILLINOIS, priority 2009, published 2012)", "system": "late INa in isolated murine ventricular myocytes", "experiment": "Voltage-clamp determination of sodium current (late INa)", "assay_type": "cell-based, mouse", "set-up": "late INa (integrated from 5% of peak current to 40 ms after depolarization): unit not given here", "conditions": "10 μmol/L ranolazine extracellular; for late INa (integrated from 5% of peak current to 40 ms after depolarization): 15 min", "protocol": "Electrophysiological determination of sodium current: Voltage-clamp experiments were performed on isolated murine ventricular myocytes with an Axopatch 200B amplifier (Molecular Devices, Sunnyvale, Calif.) in whole cell configuration. Data acquisition was performed at a sampling rate of 20 kHz and filtered at 10 kHz. Data recording and analysis were done with the pClamp8 software suite (Molecular Devices) and OriginPro 8 (Originlab, Northampton, Mass.). All experiments were carried out at room temperature. Myocytes were plated on glass cover slips and were perfused with a low-sodium Tyrode solution containing the following (in mM): N-methyl-D-glucamine 100 (titrated to pH 7.4 with HCl), NaCl 15, tetramethylammonium chloride 20, CsC15, MgCl2 1, glucose 10, 4-aminopyridine 3, MnCl2 2, HEPES10, and CaCl2 1 (final pH 7.4, CsOH). Patch electrodes were pulled from capillaries purchased from Harvard Apparatus (Holliston, Mass.) using a model P-97 puller from Sutter Instruments (Novato, Calif.). Electrodes were filled with an electrode solution containing (in mM): CsCl 20, tetraethylammonium chloride 20, glutamic acid 80, NaCl 10, MgCl2 1, MgATP 5, Li2GTP 0.3, HEPES10, EGTA 10, CaCl2 0.13 (corresponding to [Ca^2+]free of <10 nM).^23 Electrode solution pH was adjusted to 7.2 with CsOH. Electrodes used for these experiments had access resistances between 1.0 and 1.5 MΩ.\nRanolazine was provided as a crystalline solid by Gilead Sciences. Prior to experiments, a DMSO stock solution was prepared and diluted (minimum 100:1) directly into the Tyrode solution used for perfusion. Cells that were treated with ranolazine were exposed to the drug for 15 min prior to beginning voltage-clamp experiments.\nVoltage clamping studies: Voltage-clamp experiments were performed on isolated murine ventricular myocytes with an Axopatch 200B amplifier (Molecular Devices, Sunnyvale, Calif.) in whole cell configuration. Data acquisition was performed at a sampling rate of 20 kHz and filtered at 10 kHz. […]", "note": "Values joined by “and” are separate entries in the source; they are usually repeats but may differ in a detail not shown here. Equal entries are not always repeated."}
{"smiles": "COc1ccccc1OCC(O)CN1CCN(CC(=O)Nc2c(C)cccc2C)CC1", "note": "(stereo not drawn) [ranolazine]", "values": [{"measurement": "late accumulated charge", "setting": "DOCA-salt cardiomyocytes", "value": "did not affect the late accumulated charge"}, {"measurement": "late INa (integrated from 5% of peak current to 40 ms after depolarization)", "setting": "DOCA-salt myocytes", "value": "0.1142±0.01272 and 0.114±0.013"}, {"measurement": "late INa (integrated from 5% of peak current to 40 ms after depolarization)", "setting": "sham myocytes", "value": "0.1126±0.00406 and 0.113±0.004"}]}
